Assay results: patent US20230406906A1, “SERPIN PEPTIDES AND METHODS OF USING THE SAME” (SERPIN PHARMA, LLC, priority 2022, published 2023)

How the values were obtained:
NFκB [1] = experiment: NFκB reporter assay (THP1-XBlue-MD2-CD14 cells, LPS, SEAP read-out); assay type: cell-based; conditions: peptide 50 μg/ml before LPS 5 ng/ml, overnight
Procedure: The reporter cells (THP1-XBlue-MD2-CD14 cells) were treated with each peptide (50 μg/ml) before being insulted with LPS (5 ng/ml) and incubated overnight. The NFκB inducible Secreted Embryonic Alkaline Phosphatase (SEAP) was measured in the supernatant and read for absorbance.

[2] = target: LRP1 (low-density lipoprotein receptor-related protein 1) on rat PC12 cells (rat) (UniProt G3V928); experiment: cell-based or functional assay
NFκB [3] = experiment: NFκB reporter assay (THP1-XBlue-MD2-CD14 cells, LPS, SEAP read-out); assay type: cell-based; conditions: without LPS
C57BL/6J mice = experiment: Intraplantar capsaicin model of acute nociception; assay type: in vivo; conditions: male mice, 2 μg/g 1 h before capsaicin, 10 min
Procedure: For the capsaicin studies, male (n=41) and female (n=37) mice were acclimated to the behavior testing facility for at least 1 h. Capsaicin was dissolved in 20% (2-hydroxypropyl)-β-cyclodextrin (Sigma-Aldrich, St. Louis, MO, USA) solution. […] Subsequently, 10 μl of 2 μg/μl capsaicin solution was injected into the plantar area of left hind paw. Immediately after capsaicin injection, mice were placed in a plexiglass box. Two observers, blinded to treatments, recorded the time spent licking and flinching the left hind paw over 10 min.

LRP1 = target: T1, LRP1 (Rattus norvegicus, UniProt G3V928); experiment: Cell signaling analysis in PC12 cells (phospho-ERK1/2, phospho-Akt immunoblot); assay type: cell-based
T1 construct: host or cells: rat PC12 cells
Procedure: Cell signaling analysis: Rat PC12 cells were purchased from ATCC (CRL-1721). PC12 cells were maintained in high glucose DMEM (Gibco, USA) containing 10% heat-inactivated FBS (Gibco, USA), 5% HyClone heat-inactivated horse serum (Cytiva, USA), penicillin (100 units/ml) and streptomycin ([…]) in 6-well plates that were pre-coated with 0.01 mg/ml type IV collagen (Sigma-Aldrich, St. Louis, MO, USA). Cells were transferred to serum-free medium (SFM) 4 h prior to adding effectors, and then treated with SP163M (2.4, 24 or 240 nM); EI-tPA (12 nM), NGF (0.36 nM), or vehicle (PBS) for 10 min. In some cases, cells were pre-incubated with the competitive antagonist of LRP1, GST-RAP (150 nM) for 15 min or electroporated using the Rat Neuron Nucleofector Amaxa Kit (Lonza Biosciences) and incubated with siRNA to silence LRP1 expression (siLRP1; M-094191-01-0010, Dharmacon) for 48 h. Control cells were transfected with non-targeting control (NTC) siRNA (NTC; D-001810-10-05, Dharmacon). Cells were rinsed with ice-cold PBS and proteins were extracted in RIPA buffer (20 mM sodium phosphate, 150 mM NaCl, pH 7.4, 1% Triton X-100, 0.5% sodium deoxycholate, 0.1% SDS) supplemented with protease and phosphatase inhibitors (Roche Diagnostics, USA). After 30 min on ice, lysates were centrifuged at 15000×g for 5 min, supernatant collected and stored at −20° C. Equal amounts of protein from cell lysates (20 μg), as determined by BCA Protein Assay (ThermoFisher Scientific, Waltham, MA, USA), were subjected to 10% SDS-PAGE and electro-transferred to nitrocellulose membranes. The membranes were blocked with 5% nonfat dried milk and then incubated with primary anti-phospho-AKT (Cell Signaling Technology, Danvers, MA, USA; cat #9271S; 1:1000), anti-phospho-ERK1/2 (Cell Signaling Technology, Danvers, MA, USA; cat #9101S; 1:1000), anti-LRP1 (Cell Signaling Technology, Danvers, MA, USA; cat #64099S; 1:1000) or anti total-ERK1/2 (Cell Signaling Technology, Danvers, MA, USA; cat #91012S; 1:1000). Immunoblots were developed using Radiance, Radiance Q, and Radiance Plus chemiluminescent substrates and imaged using a BioRad ChemiDoc Imaging System (Bio-Rad, Hercules, CA, USA).

mice [4] = experiment: MC903 AD-like inflammatory skin model, topical treatment (dermatitis score, ear volume, scratching); assay type: in vivo
Procedure: SP16 (in 70% ethanol) was applied topically to the ears on the days of the MC903 applications (MC903+SP16). Drug vehicle (70% EtOH) was applied to control animals (MC903) and normal control animals (NC) received EtOH in place of MC903. In-life parameters: Dermatitis score (FIG. 16A) and ear volume (FIG. 16B) measured on days 0, 3, 7, 9, 11 and 14. […] Clinical Dermatitis Score (score 0-4 for each parameter)—erythema, scale/dryness, edema, excoriation/erosion (total score 0-16).
(§1) Mice were treated with SP16 in 70% EtOH (MC903+SP16) or drug vehicle (MC903). Normal control (NC) mice were treated with EtOH only. Ears were measured for PAR2 protein expression through western blot analysis (quantitative analysis after normalization to beta-actin shown) (n=3-5). TSLP was measured in both the ears and serum by ELISA (N=3-5). Scratching was assessed over a 3 minute period after a 5-minute acclimatization period and the number of scratches are shown (n=3). IL-4 was measured in ear lysate via ELISA (N=3-5).

IL-4 = experiment: MC903 AD model, IL-4 in ear lysate via ELISA; assay type: in vivo, mice; conditions: topical
Procedure: as §1

TSLP [5] = experiment: MC903 AD model, TSLP in ears and serum by ELISA; assay type: in vivo; conditions: topical, vs MC903 treated mice
Procedure: as §1

IL-2 = experiment: OVA-challenge allergic inflammation model, BALF IL-2 via ELISA; assay type: in vivo; conditions: treated during OVA challenge phase, sensitized mice
Procedure: (§2) Mice were subjected to the OVA-challenge allergic inflammation model and treated with vehicle or SP16 during the challenge phase. The bronchoalveolar lavage fluid (BALF) was analyzed for cytokines via ELISA.

mice [6] = experiment: OVA-induced allergic inflammation model, eosinophils in BALF by flow cytometry; assay type: in vivo
Procedure: FIG. 15A: mice were subjected to the OVA-challenge allergic inflammation model and treated with vehicle, SP16, or A1AT during the challenge phase. The BALF was collected and analyzed for the percent of eosinophils and compared to saline (non-challenged) mice, vehicle OVA induced mice, or SP16 treated OVA induced mice.
The impact of SP16 treatment on eosinophilic infiltration in mice was assessed using the OVA-induced allergic inflammation model. The number of eosinophils in the bronchoalveolar lavage fluid was quantified by flow cytometry.

PAR2 = experiment: MC903 AD model, PAR2 protein expression in ears (western blot); assay type: in vivo, mice; conditions: topical, normalized to beta-actin
Procedure: as §1

CCL24 = experiment: OVA-challenge allergic inflammation model, BALF CCL24 via ELISA; assay type: in vivo; conditions: treated during OVA challenge phase, sensitized mice
Procedure: as §2

CCL26 = CCL26 release by esophageal epithelial cells (EPC2); assay type: cell-based, Human
IL-1a = experiment: OVA-challenge allergic inflammation model, BALF IL-1a via ELISA; assay type: in vivo; conditions: treated during OVA challenge phase, sensitized mice
Procedure: as §2

TSLP [7] = experiment: Poly I:C-induced TSLP production by SPINK7 knockout EPC2 cells (ELISA); assay type: cell-based, Human; conditions: SPINK7 knockout esophageal cells, Poly I:C 5 μg/ml, 8 hours
Procedure: FIG. 12A: Poly I:C-induced TSLP production by SPINK7 knockout EPC2 cells (Human esophageal epithelial cells). SPINK7 KO cells and control cells were plated in high calcium and high density, for 48 hours before being treated with SP16 or 7G and Poly I:C (5 μg/ml, or untreated) for 8 hours. TSLP production in the supernatant was measured by ELISA. FIG. 12B: primary esophageal epithelial cells (EPC2) were treated with SP16 and then stimulated with IL-13, a TH2 response mediated cytokine, to induce CCL26.
SP16 reduces several key cytokines involved in allergic responses. Upon knockout of SPINK7, esophageal epithelial cells release exacerbated levels of TSLP. TSLP is a key mediator of immune cell responses upon activation to an insult such as allergens.

STAT6 = experiment: IL-13 stimulated STAT6 phosphorylation in esophageal EPC2 cells (western blot); assay type: cell-based, Human; conditions: 30 minutes post IL-13 induction
Procedure: Esophageal EPC2 cells were treated with vehicle (ddw), A1AT or SP163M. Cells were collected at time-points indicated and western blot analysis of phospho-specific STAT6 was analyzed. […] Using CRISPER/CAS9 technology, an LRP1 knockout esophageal EPC2 cell line was created.

T1 sequence (G3V928 20-3944 limits assumed): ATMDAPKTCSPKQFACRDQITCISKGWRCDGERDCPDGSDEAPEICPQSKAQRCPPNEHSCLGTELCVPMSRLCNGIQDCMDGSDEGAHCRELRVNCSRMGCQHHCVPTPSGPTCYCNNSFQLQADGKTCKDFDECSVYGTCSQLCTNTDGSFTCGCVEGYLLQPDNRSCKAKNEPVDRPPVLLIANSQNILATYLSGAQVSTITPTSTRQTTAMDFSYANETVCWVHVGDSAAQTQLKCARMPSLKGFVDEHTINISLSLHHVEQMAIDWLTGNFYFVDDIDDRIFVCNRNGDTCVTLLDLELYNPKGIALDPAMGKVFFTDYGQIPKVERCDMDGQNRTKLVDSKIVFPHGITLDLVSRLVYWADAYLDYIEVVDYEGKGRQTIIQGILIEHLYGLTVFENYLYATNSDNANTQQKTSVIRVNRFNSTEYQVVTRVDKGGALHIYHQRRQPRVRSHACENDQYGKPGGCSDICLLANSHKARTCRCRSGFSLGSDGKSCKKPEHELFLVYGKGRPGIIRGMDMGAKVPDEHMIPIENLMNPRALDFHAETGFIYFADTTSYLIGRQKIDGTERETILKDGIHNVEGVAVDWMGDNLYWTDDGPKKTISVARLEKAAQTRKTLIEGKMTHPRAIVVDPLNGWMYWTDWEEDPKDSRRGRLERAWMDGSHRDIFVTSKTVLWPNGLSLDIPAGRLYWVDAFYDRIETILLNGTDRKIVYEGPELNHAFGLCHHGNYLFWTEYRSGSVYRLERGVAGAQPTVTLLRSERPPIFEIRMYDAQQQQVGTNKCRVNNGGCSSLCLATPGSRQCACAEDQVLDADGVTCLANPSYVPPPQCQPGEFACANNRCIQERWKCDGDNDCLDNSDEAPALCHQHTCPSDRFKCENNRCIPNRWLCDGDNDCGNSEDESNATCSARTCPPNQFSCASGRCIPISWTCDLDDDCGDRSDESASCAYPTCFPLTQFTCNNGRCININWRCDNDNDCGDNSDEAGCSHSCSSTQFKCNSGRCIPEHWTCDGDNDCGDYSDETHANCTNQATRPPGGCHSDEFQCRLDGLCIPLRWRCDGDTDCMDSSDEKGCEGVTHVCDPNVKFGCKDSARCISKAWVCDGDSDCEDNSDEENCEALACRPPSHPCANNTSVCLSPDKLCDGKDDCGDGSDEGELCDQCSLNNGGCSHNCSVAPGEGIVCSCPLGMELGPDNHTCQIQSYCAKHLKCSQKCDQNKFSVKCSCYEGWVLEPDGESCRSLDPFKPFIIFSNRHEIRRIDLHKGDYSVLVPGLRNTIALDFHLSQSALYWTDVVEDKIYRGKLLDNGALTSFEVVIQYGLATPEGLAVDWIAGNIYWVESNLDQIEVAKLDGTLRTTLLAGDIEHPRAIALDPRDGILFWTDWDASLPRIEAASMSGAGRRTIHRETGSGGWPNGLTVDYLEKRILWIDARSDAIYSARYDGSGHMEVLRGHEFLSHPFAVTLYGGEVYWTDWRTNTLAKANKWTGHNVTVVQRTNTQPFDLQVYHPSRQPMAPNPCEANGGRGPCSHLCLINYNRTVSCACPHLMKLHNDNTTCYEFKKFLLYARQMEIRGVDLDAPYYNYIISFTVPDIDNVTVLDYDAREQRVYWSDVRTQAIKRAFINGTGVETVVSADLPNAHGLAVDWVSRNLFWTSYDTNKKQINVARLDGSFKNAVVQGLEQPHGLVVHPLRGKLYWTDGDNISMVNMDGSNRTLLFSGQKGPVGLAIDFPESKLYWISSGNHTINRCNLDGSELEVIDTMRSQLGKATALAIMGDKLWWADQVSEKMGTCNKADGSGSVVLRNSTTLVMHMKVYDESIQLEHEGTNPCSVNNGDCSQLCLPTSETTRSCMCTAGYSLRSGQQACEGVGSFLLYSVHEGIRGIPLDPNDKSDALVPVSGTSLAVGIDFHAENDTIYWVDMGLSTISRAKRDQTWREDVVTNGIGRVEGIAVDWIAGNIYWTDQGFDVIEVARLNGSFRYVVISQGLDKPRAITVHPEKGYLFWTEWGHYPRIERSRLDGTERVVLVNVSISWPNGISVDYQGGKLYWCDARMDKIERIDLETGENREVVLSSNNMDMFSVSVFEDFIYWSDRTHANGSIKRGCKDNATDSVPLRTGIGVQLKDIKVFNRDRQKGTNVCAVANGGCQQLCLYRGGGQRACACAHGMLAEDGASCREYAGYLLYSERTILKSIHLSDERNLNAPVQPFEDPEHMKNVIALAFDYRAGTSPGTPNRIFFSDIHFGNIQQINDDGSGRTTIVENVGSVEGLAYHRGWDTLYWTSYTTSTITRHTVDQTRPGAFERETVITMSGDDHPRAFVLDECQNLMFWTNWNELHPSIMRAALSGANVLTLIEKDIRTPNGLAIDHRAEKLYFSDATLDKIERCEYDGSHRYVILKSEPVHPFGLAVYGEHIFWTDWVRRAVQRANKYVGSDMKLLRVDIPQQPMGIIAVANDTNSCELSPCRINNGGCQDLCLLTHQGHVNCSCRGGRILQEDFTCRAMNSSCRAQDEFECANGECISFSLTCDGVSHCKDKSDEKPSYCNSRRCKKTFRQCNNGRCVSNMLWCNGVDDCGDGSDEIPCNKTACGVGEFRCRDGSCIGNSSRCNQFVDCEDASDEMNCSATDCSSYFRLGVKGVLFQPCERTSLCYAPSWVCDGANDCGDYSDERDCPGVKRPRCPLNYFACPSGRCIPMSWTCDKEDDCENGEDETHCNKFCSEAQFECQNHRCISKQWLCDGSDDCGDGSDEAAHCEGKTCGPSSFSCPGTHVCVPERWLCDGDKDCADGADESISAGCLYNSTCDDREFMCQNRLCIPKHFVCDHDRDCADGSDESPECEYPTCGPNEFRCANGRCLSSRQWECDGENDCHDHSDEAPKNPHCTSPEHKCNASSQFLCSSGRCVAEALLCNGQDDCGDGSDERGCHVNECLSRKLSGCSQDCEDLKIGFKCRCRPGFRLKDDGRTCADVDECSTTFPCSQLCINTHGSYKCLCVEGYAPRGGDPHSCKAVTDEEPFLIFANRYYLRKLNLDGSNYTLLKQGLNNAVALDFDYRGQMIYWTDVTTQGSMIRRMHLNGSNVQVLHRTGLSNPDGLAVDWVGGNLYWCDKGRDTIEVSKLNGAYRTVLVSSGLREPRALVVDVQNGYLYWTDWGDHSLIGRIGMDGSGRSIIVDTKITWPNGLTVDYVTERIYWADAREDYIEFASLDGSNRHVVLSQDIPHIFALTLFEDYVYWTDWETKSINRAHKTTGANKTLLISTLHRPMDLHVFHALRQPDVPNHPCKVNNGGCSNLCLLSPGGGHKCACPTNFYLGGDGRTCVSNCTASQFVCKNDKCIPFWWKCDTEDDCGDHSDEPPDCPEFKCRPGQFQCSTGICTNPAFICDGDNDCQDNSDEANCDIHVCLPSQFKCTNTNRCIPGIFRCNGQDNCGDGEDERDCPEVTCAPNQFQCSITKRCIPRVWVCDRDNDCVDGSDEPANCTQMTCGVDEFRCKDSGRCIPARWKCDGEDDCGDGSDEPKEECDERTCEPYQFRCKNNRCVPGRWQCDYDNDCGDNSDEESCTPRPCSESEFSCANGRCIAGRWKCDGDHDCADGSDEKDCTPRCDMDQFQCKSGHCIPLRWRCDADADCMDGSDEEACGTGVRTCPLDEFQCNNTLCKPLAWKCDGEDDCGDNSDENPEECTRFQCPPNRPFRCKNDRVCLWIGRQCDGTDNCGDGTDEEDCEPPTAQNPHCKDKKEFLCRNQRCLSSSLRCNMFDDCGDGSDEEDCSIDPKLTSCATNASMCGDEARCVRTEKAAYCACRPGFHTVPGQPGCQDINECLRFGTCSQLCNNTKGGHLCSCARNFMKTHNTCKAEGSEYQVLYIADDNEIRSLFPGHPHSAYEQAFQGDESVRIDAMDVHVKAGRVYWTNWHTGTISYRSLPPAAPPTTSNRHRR
T1 sequence (G3V928 3945-4545 partner limits assumed): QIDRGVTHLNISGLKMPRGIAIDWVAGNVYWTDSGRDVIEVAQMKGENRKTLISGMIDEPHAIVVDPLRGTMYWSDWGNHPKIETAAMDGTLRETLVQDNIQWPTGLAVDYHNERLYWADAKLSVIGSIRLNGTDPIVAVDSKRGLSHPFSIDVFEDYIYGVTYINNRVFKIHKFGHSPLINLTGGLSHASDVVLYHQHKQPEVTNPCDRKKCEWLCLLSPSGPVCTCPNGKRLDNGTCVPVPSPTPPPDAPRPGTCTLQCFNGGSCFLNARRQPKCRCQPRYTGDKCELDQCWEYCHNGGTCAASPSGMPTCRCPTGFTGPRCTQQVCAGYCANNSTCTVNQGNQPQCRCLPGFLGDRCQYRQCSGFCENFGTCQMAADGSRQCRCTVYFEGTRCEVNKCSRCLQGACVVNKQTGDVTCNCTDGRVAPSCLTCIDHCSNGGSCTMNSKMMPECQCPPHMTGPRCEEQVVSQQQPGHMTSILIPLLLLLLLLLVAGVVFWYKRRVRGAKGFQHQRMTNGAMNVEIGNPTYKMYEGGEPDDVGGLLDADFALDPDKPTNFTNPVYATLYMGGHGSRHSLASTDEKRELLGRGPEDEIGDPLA

Substance: R R R V K F N K P F V F L M R R R (RRRVKFNKPFVFLMRRR) [SP22]
- NFκB activity (NFκB inducible SEAP in supernatant) (NFκB [1]): the NFκB activity was significantly reduced

Substance: Receptor associated protein expressed as a glutathione-S-transferase fusion protein (GST-RAP)
- block of SP163M-induced phospho-Akt and phospho-ERK1/2 in PC12 cells (immunoblot); concentration of RAP used [2]: 150 nM

Substance: R R R V R F N R P F L R R R (RRRVRFNRPFLRRR) [SP32]
- NFκB activity (NFκB inducible SEAP in supernatant) (NFκB [1]): could not be restored with the poly arginine flanks

Substance: V R F N R P F L (VRFNRPFL) [SP31]
- NFκB activity (NFκB inducible SEAP in supernatant) (NFκB [1]): the anti-inflammatory activity of the peptide was lost

Substance: RRRVKFNKPFVFLMIEQNTKRRR (RRRVKFNKPFVFLMIEQNTKRRR) [SP21]
- NFκB activity (NFκB inducible SEAP in supernatant) (NFκB [1]): NFkB inhibition increased as well relative to SP16

Substance: SIPPEVKFNKPFVFLMIEQNTKSPLFMGKVVNP (SIPPEVKFNKPFVFLMIEQNTKSPLFMGKVVNP; SP16 peptide core sequence including the LRP1 binding site; listed as Homo sapiens) [SP8, reference compound]
- NFkB induction by the peptide alone (NFκB [3]): showed NFkB inducible properties without the need for LPS
- NFκB activity (NFκB inducible SEAP in supernatant) (NFκB [1]): neither the scrambled core control peptide nor the AAT 0-36 fragment decreased the NFκB activity

Substance: EI-tPA: Recombinant human EI-tPA, derivative of tissue-type plasminogen activator, known LRP1 agonist [reference compound]
- capsaicin induced acute pain-related behavior (time spent licking) (C57BL/6J mice): blocked the capsaicin induced acute pain-related behavior
- activation of ERK1/2 in cells transfected with LRP1-specific siRNA (LRP1; 48 h after transfection): ERK1/2 was not activated
- activation of ERK1/2 in cells transfected with NTC siRNA (LRP1; 48 h after transfection): also robustly activated ERK1/2

Substance: NGF: NGF-β purchased from Sigma, cell signaling control [reference compound]
- activation of ERK1/2 (cell signaling control) (LRP1; 0.36 nM, 10 min): also activated ERK1/2

Substance: V K F N K P F V F L M I E Q N T K (VKFNKPFVFLMIEQNTK; SP16 peptide core sequence including the LRP1 binding site; listed as Homo sapiens)
- disease improvement (dermatitis score, ear volume) (mice [4]; topical solution (1%) in 70% ethanol, 14-day period, vs vehicle): a significant improvement in disease vs. vehicle-treated mice
- pruritis (number of scratches) (mice [4]; topical, vs vehicle (MC903) treated mice): significantly reduces pruritis compared to vehicle (MC903) treated mice
- IL-4 release in the skin tissue (IL-4): significantly reduced in SP16-treated animals
- systemic (serum) and local (ear) TSLP (TSLP [5]): a significant reduction in systemic (serum) and local (ear) TSLP compared to MC903 treated mice
- IL-2 in BALF (IL-2): significantly reduces IL-2 following OVA-challenge in sensitized mice
- eosinophil infiltration into the lungs (BALF) (mice [6]): significantly (p=0.04) reduces eosinophil infiltration into the lungs
- activation of ERK1/2 over time (LRP1; 240 nM, 0-30 min): robustly activated ERK1/2 from 5 to 30 min
- lowest concentration activating phospho-ERK1/2 (LRP1; 10 min): 24 nM
- activation of ERK1/2 in cells transfected with NTC siRNA (LRP1; 48 h after transfection): ERK1/2 was robustly activated
- NFκB activity (NFκB inducible SEAP in supernatant) (NFκB [1]): capable of reducing NFκB activity
- PAR2 protein expression in ears (PAR2): PAR2 and TSLP inhibition
- CCL24 in BALF (CCL24): significantly reduces CCL24 following OVA-challenge in sensitized mice
- CCL26 release (CCL26; EPC2 cells stimulated with IL-13): significantly reduced CCL26 release dose dependently
- Poly I:C mediated CCL26 release (CCL26; SPINK7 knockout esophageal cells): effective in significantly reducing Poly I:C mediated TSLP and CCL26 release
- IL-1a in BALF (IL-1a): significantly reduces IL-1a following OVA-challenge in sensitized mice
- Poly I:C mediated TSLP release (TSLP [7]): effective in significantly reducing Poly I:C mediated TSLP and CCL26 release

Substance: A1AT: alpha-1 antitrypsin, the prototypical SERPIN
- STAT6 phosphorylation (STAT6): STAT6 was phosphorylated in vehicle and A1AT treated cells

Substance: FPKMVPQFNTELKIFPEVNIK (FPKMVPQFNTELKIFPEVNIK) [SP34, reference compound]
- NFκB activity (NFκB inducible SEAP in supernatant) (NFκB [1]): neither the scrambled core control peptide nor the AAT 0-36 fragment decreased the NFκB activity

Substance: V K F N K P F V F L M (VKFNKPFVFLM) [SP20]
- NFκB activity (NFκB inducible SEAP in supernatant) (NFκB [1]): did not have an inhibitory effect
